# From the supplement of paper PMC10307832
# Columns and labels:
# Assay in all cases: relative viability (nuclei count vs DMSO), 5 days (fraction); higher = more cells survive
# [1] = compound: CC(O)(CS(=O)(=O)c1ccc(F)cc1)C(=O)Nc1ccc(C#N)c(C(F)(F)F)c1 [Bicalutamide] + N=C(N)NC(=N)NCCc1ccccc1 [Phenformin] (partner 250 µM)
# How it was run: (§1)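 For relative viability, nuclei counts in treated wells were divided by those in vehicle wells. Lung cancer cell lines had been pin-tool dosed in 1536-well plates the day after seeding and cultured for 5 days, then fixed and stained in one step (final 0.05% Triton X-100, 1% formaldehyde, 1 ug/ml Hoechst) and imaged at 4×. Doses were one drug alone or a fixed anchor-drug dose plus five library-drug doses (not always all listed) in √10 steps, and values are duplicate-plate medians.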
# [2] = compound: C(C(=O)C(=O)O)Br [Bromopyruvate] + Cc1cc(Nc2cc(N3CCN(C)CC3)nc(Sc3ccc(NC(=O)C4CC4)cc3)n2)n[nH]1 [Tozasertib] (partner 0.1 µM)
# How it was run: as §1
# [3] = compound: C(C(=O)C(=O)O)Br [Bromopyruvate] + Nc1nc2[nH]cc(CCc3ccc(C(=O)N[C@@H](CCC(=O)O)C(=O)O)cc3)c2c(=O)[nH]1 [Pemetrexed] (partner 0.2 µM)
# How it was run: as §1
# Bromopyruvate + AZD7762 = compound: C(C(=O)C(=O)O)Br [Bromopyruvate] + NC(=O)Nc1cc(-c2cccc(F)c2)sc1C(=O)N[C@H]1CCCNC1 [AZD7762] (partner 0.2 µM)
# How it was run: as §1
Cell Line,relative viability ([1]; first compound 0.08 µM),relative viability ([1]; first compound 0.253 µM),relative viability ([1]; first compound 0.8 µM),relative viability ([1]; first compound 2.53 µM),relative viability ([2]; first compound 1 µM),relative viability ([2]; first compound 3.162 µM),relative viability ([2]; first compound 10 µM),relative viability ([2]; first compound 31.62 µM),relative viability ([2]; first compound 100 µM),relative viability ([3]; first compound 1 µM),relative viability ([3]; first compound 3.162 µM),relative viability ([3]; first compound 10 µM),relative viability ([3]; first compound 31.62 µM),relative viability ([3]; first compound 100 µM),relative viability (Bromopyruvate + AZD7762; first compound 1 µM),relative viability (Bromopyruvate + AZD7762; first compound 3.162 µM),relative viability (Bromopyruvate + AZD7762; first compound 10 µM),relative viability (Bromopyruvate + AZD7762; first compound 31.62 µM),relative viability (Bromopyruvate + AZD7762; first compound 100 µM)
201T,0.503,0.414,0.481,0.416,0.916,0.954,0.99,1.02,0.982,0.327,0.345,0.323,0.357,0.297,0.638,0.715,0.6,0.594,0.603
A549,0.247,0.11,0.181,0.254,,,,,,,,,,,,,,,
A-427,0.382,0.283,0.367,0.224,0.22,0.216,0.176,0.162,0.151,1.05,0.975,1.05,0.863,1.07,0.782,0.747,0.883,0.66,0.755
ABC-1,0.26,0.229,0.253,0.212,0.178,0.195,0.155,0.146,0.166,,,,,,0.532,0.995,0.951,0.834,0.734
BEN,0.257,0.262,0.28,0.279,0.556,0.558,0.426,0.499,0.402,0.87,0.656,0.833,0.62,0.753,0.806,0.662,0.743,0.613,0.619
CAL-12T,0.609,0.505,0.626,0.493,0.362,0.589,0.242,0.294,0.308,1.26,1.05,1.25,1.1,1.05,0.633,0.588,0.611,0.568,0.637
COR-L23,0.5,0.487,0.512,0.414,0.198,0.202,0.183,0.204,0.0755,0.184,0.194,0.195,0.183,0.202,,,,,
COR-L 105,0.481,0.412,0.52,0.37,0.36,0.34,0.279,0.352,0.435,1.25,1.19,1.1,1,0.532,,,,,
ChaGo-K-1,0.449,0.388,0.509,0.48,0.234,0.263,0.247,0.216,0.205,0.266,0.254,0.261,0.27,0.259,0.881,0.868,0.874,0.866,0.92
EKVX,0.246,0.223,0.233,0.24,0.427,0.391,0.458,0.377,0.421,0.396,0.424,0.376,0.372,0.438,0.818,0.791,0.662,0.61,0.693
EMC-BAC-2,0.541,0.554,0.609,0.46,0.295,0.289,0.317,0.267,0.314,0.422,0.45,0.451,0.479,0.453,1.04,1.16,1.09,1.04,1.1
EPLC-272H,0.34,0.274,0.311,0.315,0.257,0.372,0.241,0.325,0.215,0.367,0.259,0.334,0.251,0.432,0.236,0.205,0.346,0.313,0.258
H3255,0.42,0.337,,0.352,0.613,0.771,0.686,0.702,0.829,0.558,0.535,0.573,0.536,0.597,0.907,0.86,0.964,0.886,0.836
HARA,0.516,0.388,0.595,0.481,0.13,0.122,0.0899,0.13,0.102,0.275,0.232,,0.219,0.271,1.98,0.393,,0.298,0.289
HCC-15,0.513,0.418,0.6,0.484,0.393,0.546,0.286,0.371,0.399,0.241,0.231,0.227,0.229,0.234,1.22,1.25,1.32,1.25,1.22
HCC-44,0.302,0.177,0.292,0.184,0.953,1,0.997,1.02,0.882,0.621,0.591,0.555,0.616,0.638,0.959,1.01,0.963,1.02,1.04
HCC-78,0.776,0.557,0.796,0.668,0.375,0.404,0.481,0.311,0.536,0.938,0.92,0.95,0.895,0.95,0.481,0.624,0.565,0.549,0.463
HCC-366,0.568,0.615,0.699,0.64,0.136,0.142,0.0931,0.12,0.0884,0.17,0.174,0.146,0.203,0.2,0.272,0.346,0.197,0.254,0.249
HCC-827,0.405,0.316,0.412,0.443,0.375,0.391,0.386,0.421,0.435,0.26,0.247,0.26,0.262,0.266,0.175,0.195,0.198,0.203,0.19
